In data set [1] the target is T1, TLR7 (Homo sapiens, UniProt Q9NYK1).
T1 sequence (Q9NYK1 27-1049): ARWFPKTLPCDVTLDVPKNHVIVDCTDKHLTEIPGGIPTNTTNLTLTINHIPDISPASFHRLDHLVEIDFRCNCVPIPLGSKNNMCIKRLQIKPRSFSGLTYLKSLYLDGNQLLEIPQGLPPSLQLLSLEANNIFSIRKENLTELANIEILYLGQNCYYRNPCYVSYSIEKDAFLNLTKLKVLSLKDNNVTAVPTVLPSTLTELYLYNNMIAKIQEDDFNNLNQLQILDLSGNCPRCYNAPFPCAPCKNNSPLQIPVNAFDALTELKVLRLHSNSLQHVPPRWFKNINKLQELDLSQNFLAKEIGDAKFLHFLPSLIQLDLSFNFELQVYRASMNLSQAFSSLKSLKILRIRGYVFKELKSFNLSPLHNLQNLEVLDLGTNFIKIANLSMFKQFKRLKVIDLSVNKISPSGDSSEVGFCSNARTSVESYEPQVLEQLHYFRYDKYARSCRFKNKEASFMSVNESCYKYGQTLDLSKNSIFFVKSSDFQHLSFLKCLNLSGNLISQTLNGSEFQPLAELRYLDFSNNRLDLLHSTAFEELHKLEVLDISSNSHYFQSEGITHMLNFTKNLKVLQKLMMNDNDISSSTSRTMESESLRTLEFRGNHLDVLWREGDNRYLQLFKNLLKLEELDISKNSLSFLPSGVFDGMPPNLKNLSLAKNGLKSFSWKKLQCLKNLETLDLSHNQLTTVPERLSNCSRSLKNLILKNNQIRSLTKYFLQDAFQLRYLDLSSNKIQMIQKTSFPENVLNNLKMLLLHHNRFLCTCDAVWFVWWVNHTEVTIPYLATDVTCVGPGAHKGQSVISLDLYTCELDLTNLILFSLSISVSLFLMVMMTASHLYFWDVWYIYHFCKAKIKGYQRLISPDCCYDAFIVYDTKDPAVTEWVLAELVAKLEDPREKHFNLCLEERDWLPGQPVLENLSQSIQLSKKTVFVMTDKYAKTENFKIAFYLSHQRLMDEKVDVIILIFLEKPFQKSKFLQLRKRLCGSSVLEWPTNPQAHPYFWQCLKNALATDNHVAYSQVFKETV
Description: TLR7 antagonist assay in human PBMCs (ORN1075, IFNα ELISA). Conditions: human PBMC, 0.5 μM ORN1075, IFNα readout. On the set-up: PBMCs were isolated from unpurified buffy coat from healthy human donors; host or cells: primary human PBMCs. The format is cell-based. Here is the method:
PBMCs were isolated from unpurified buffy coat from healthy human donors (Blood Research Components, LLC). For antagonist testing, cells were plated on 96-well U-bottom plates at 3×10^6 cells/ml. Antagonist compounds were added to cells in duplicate wells and titrated from 10 μM in 1:3 serial dilutions (8 antagonist concentrations tested in total). After approximately 30 minutes, cells were stimulated with agonist compound (see table 2 for agonist concentrations). After stimulation, cells were incubated overnight at 37° C. To increase the stability of the ssRNA, 3 μg/ml DOTAP (Roche) was added to ORN1075 agonist solutions. All dilutions were made in RPMI-1640 media (Sigma, cat.# R7388)+5% human male AB sera (Sigma, cat.# H4522)+1× Penicillin/Streptomycin solution (VWR, cat.#82026-730).
TLR activity was measured in PBMCs and neutrophils by ELISA using cytokine readouts specific for the TLR of interest.
IFNα was measured as a readout for TLR7 and TLR9 activity in PBMCs stimulated with either ORN1075, or ODN2395, respectively, using a Human Pan-IFNα ELISA kit (MABTech, cat.#3425-1H-20). PBMC supernatant was diluted 1:3 in PBS+0.05% tween-20+0.1% BSA. Absorbance at 450 nm was recorded using a Molecular Devices SpectraMax340PC plate reader. The IC50 for each antagonist was subsequently calculated following the method described below.
Raw ELISA datasets for each 96-well plate, consisting of absorbance readings at […], were first imported in Microsoft Excel to calculate the average absorbance for each standard or antagonist concentration. The averaged data was then imported into SigmaPlot v.11.0 where a standard curve was calculated and used to extrapolate the relative concentration of TLR readout (TNFα, IFNα, etc.) produced. The dose-response curve of each antagonist was then plotted with SigmaPlot v.11.0 on a Log scale. Concentrations of TLR readout were converted to a percentage relative to the average maximum concentration for that ELISA plate in Microsoft Excel. The IC50 for each antagonist was then determined with the SigmaPlot regression wizard using a 4-parameter Hill equation. Each antagonist was tested in a minimum of 3 independent experiments and IC50 results were compiled and averaged using Microsoft Excel.

Data set [2] addresses T1, TLR7. The experiment in a line: Antagonist/agonist competitive inhibition cross titration (TLR7 agonist JB6011). The format is cell-based. Conditions: antagonist 10 uM to 4 nM vs agonist 0.12-3.3 μM; preliminary, one assay. Here is the method:
In preliminary results (i.e., one assay result—repeat assays in process), a cross titration of antagonist versus agonist was performed to determine the form of antagonist binding. JB6121 was titrated from 10 uM to 4 nM against various concentrations of challenge agonist. The small molecule TLR7 agonist JB6011 was used. The graph below, while crude, implies that the inhibition of the TLR7 agonist by JB6121 is competitive in nature due to the parallel tracking of the curves as the agonist dose is increased. The agonist range for this experiment was between 0.12 and 3.3 μM or about a 30-fold range.

Data set [3] in a line: A-B permeability, CaCo-2 cells (CEREP). The format is in vitro ADME. Conditions: human, pH 6.5/7.4. On the procedure: Preliminary screening measures were conducted by CEREP. All values fall within acceptable limits (Table 5). Solubility assays where performed by CEREP, Seattle, Wash., according to Lipinski, C. A. et al., 1997, Adv. Drug Del. Rev., 46:3-26. Protein binding assays where performed by CEREP, Seattle, Wash., according to Banker, M. J. et al., 2003, J. Pharm. Sci., 92:967-974. Permeability assays where performed by CEREP, Seattle, Wash. according to Hildalgo, I. J., 1998, Gastroenterology, 96:736-749. Metabolic stability assays where performed by CEREP, Seattle, Wash., according to Obach, R. S. et al., 1997, J. Pharmacol. Exp. Ther., 283:46-58. P-glycoprotein inhibition assays where performed by CEREP, Seattle, Wash., according to Polli, J. W. et al., 2001, J. Pharm. Exp. Ther., 299:620-628. Cell viability assays where performed by CEREP, Seattle, Wash., according to Mosmann, T., 1983, J. Immunol. Met. 65:55-62. hERG automated patch clamp assays where performed by CEREP, Seattle, Wash., according to Mathes, C., 2006, Expert Opin. Ther. Targets, 10:230-241.

At TLR7 [1], `CN1CCN(c2nc(NCCN3CCOCC3)c3ncc(-c4ccccc4)nc3n2)CC1` [JB6059] registered an IC50 of 143 nM.
`CCOc1nc2c(NCCN3CCOCC3)nc(NCc3ccccc3)nc2nc1NCCN1CCOCC1` [JB6180] returned an IC50 against TLR7 [1] of 502 nM.
Same read-out and setting: the figure for `CCOc1nc2c(NCCN3CCCC3)nc(-c3ccccc3)nc2nc1N1CCN(C)CC1` [JB6131] is 64 nM; for `CN1CCN(c2nc3nc(-c4ccccc4)nc(NCCN4CCOCC4)c3nc2OCCN2CCOCC2)CC1` [JB6116] it is 81 nM; for `COCCN1CCN(c2nc(NCCN3CCOCC3)c3nc(Cl)c(NCCN4CCOCC4)nc3n2)CC1` [JB6160] it is 28 nM.
On the same count and under the same terms, the figure for `Clc1nc2c(NCCN3CCOCC3)nc(NCc3ccccc3)nc2nc1NCCN1CCOCC1` [JB6172] is 62 nM; for `Clc1nc2c(NCCN3CCOCC3)nc(N3CCOCC3)nc2nc1NCCN1CCOCC1` [JB6147] it is 223 nM.
For `CN1CCN(c2nc(NCCN3CCOCC3)c3nc(Cl)c(NCCN4CCOCC4)nc3n2)CC1` [JB6121, 6-chloro-2-(4-methylpiperazin-1-yl)-N^4,N^7-bis(2-morpholinoethyl)pteridine-4,7-diamine], the “form of antagonist binding: inhibition of the TLR7 agonist JB6011” value on TLR7 [2] is listed as “competitive”. In data set [3], this compound displayed a Papp A→B of 1.2 ×10⁻⁶ cm/s. This compound also registered an IC50 at TLR7 [1] of 25 nM.
For the compound `CCCCNc1nc(NCCN2CCOCC2)c2nc(Cl)c(NCCN3CCOCC3)nc2n1` [JB6140], at TLR7 [2], the “form of antagonist binding: inhibition of the TLR7 agonist JB6011” value is listed as “comparable result”. Besides, the IC50 on TLR7 [1] stood at 238 nM.
Take `C[C@@H]1CN(CCNc2nc3nc(N4CCN(C)CC4)nc(NCCN4C[C@@H](C)O[C@@H](C)C4)c3nc2Cl)C[C@H](C)O1` [JB6143]: at TLR7 [1], the IC50 came to 24 nM.
Same read-out and setting: the figure for `CCCCNc1nc(NCCN2CCOCC2)c2nc(SCC)c(NCCN3CCOCC3)nc2n1` [JB6185] is 74 nM.
